Source: the NIST ThermoML archive (doi:10.1016/j.jct.2006.07.017)

Test: xn = mol fraction of the nth substance listed
Details: 101 kPa, Liquid

Cc1ccccc1C [1,2-dimethylbenzene] + CN(C)C=O
Details | mass density [kg/m3]
293.15 K, x1 = 0.0555 | 943.56
293.15 K, x1 = 0.1111 | 938.71
293.15 K, x1 = 0.1754 | 933.3
293.15 K, x1 = 0.2352 | 928.47
293.15 K, x1 = 0.2952 | 923.8
293.15 K, x1 = 0.3562 | 919.23
293.15 K, x1 = 0.4251 | 914.29
293.15 K, x1 = 0.4865 | 910.06
293.15 K, x1 = 0.5484 | 905.95
293.15 K, x1 = 0.612 | 901.89
293.15 K, x1 = 0.6785 | 897.8
293.15 K, x1 = 0.7325 | 894.58
293.15 K, x1 = 0.7954 | 890.96
293.15 K, x1 = 0.8654 | 887.04
293.15 K, x1 = 0.9325 | 883.4
303.15 K, x1 = 0.0652 | 933.58
303.15 K, x1 = 0.1251 | 928.39
303.15 K, x1 = 0.1854 | 923.37
303.15 K, x1 = 0.2462 | 918.5
303.15 K, x1 = 0.3125 | 913.42
303.15 K, x1 = 0.3785 | 908.59
303.15 K, x1 = 0.4358 | 904.56
303.15 K, x1 = 0.4962 | 900.47
303.15 K, x1 = 0.5521 | 896.83
303.15 K, x1 = 0.6125 | 893.04
303.15 K, x1 = 0.6784 | 889.05
303.15 K, x1 = 0.7451 | 885.17
303.15 K, x1 = 0.8012 | 882.01
303.15 K, x1 = 0.8658 | 878.48
303.15 K, x1 = 0.9485 | 874.12
313.15 K, x1 = 0.0441 | 926.11
313.15 K, x1 = 0.1025 | 920.99
313.15 K, x1 = 0.1762 | 914.82
313.15 K, x1 = 0.2341 | 910.18
313.15 K, x1 = 0.2951 | 905.51
313.15 K, x1 = 0.3756 | 899.63
313.15 K, x1 = 0.4415 | 895.06
313.15 K, x1 = 0.5012 | 891.08
313.15 K, x1 = 0.5685 | 886.8
313.15 K, x1 = 0.6215 | 883.55
313.15 K, x1 = 0.6865 | 879.72
313.15 K, x1 = 0.7451 | 876.39
313.15 K, x1 = 0.8021 | 873.25
313.15 K, x1 = 0.8654 | 869.88
313.15 K, x1 = 0.9448 | 865.79
323.15 K, x1 = 0.0485 | 916.16
323.15 K, x1 = 0.1124 | 910.62
323.15 K, x1 = 0.1852 | 904.61
323.15 K, x1 = 0.2521 | 899.35
323.15 K, x1 = 0.3251 | 893.91
323.15 K, x1 = 0.3952 | 888.96
323.15 K, x1 = 0.4658 | 884.2
323.15 K, x1 = 0.5315 | 879.99
323.15 K, x1 = 0.5952 | 876.08
323.15 K, x1 = 0.6584 | 872.37
323.15 K, x1 = 0.7251 | 868.61
323.15 K, x1 = 0.7952 | 864.81
323.15 K, x1 = 0.8456 | 862.18
323.15 K, x1 = 0.9012 | 859.35
323.15 K, x1 = 0.9599 | 856.45
333.15 K, x1 = 0.0521 | 906.08
333.15 K, x1 = 0.1245 | 899.89
333.15 K, x1 = 0.1895 | 894.6
333.15 K, x1 = 0.2451 | 890.29
333.15 K, x1 = 0.3021 | 886.06
333.15 K, x1 = 0.3685 | 881.35
333.15 K, x1 = 0.4214 | 877.76
333.15 K, x1 = 0.4912 | 873.24
333.15 K, x1 = 0.5584 | 869.09
333.15 K, x1 = 0.6121 | 865.92
333.15 K, x1 = 0.6725 | 862.48
333.15 K, x1 = 0.7315 | 859.26
333.15 K, x1 = 0.7943 | 855.95
333.15 K, x1 = 0.8651 | 852.38
333.15 K, x1 = 0.9432 | 848.58
343.15 K, x1 = 0.0625 | 895.2
343.15 K, x1 = 0.1325 | 889.33
343.15 K, x1 = 0.1952 | 884.33
343.15 K, x1 = 0.2658 | 878.99
343.15 K, x1 = 0.3321 | 874.24
343.15 K, x1 = 0.3965 | 869.86
343.15 K, x1 = 0.4652 | 865.41
343.15 K, x1 = 0.5325 | 861.27
343.15 K, x1 = 0.5912 | 857.83
343.15 K, x1 = 0.6524 | 854.4
343.15 K, x1 = 0.7125 | 851.16
343.15 K, x1 = 0.7895 | 847.19
343.15 K, x1 = 0.8462 | 844.4
343.15 K, x1 = 0.9012 | 841.76
343.15 K, x1 = 0.9577 | 839.14
353.15 K, x1 = 0.0715 | 884.27
353.15 K, x1 = 0.1252 | 879.83
353.15 K, x1 = 0.1858 | 875.05
353.15 K, x1 = 0.2521 | 870.08
353.15 K, x1 = 0.3215 | 865.16
353.15 K, x1 = 0.3865 | 860.79
353.15 K, x1 = 0.4251 | 858.31
353.15 K, x1 = 0.4851 | 854.59
353.15 K, x1 = 0.5584 | 850.27
353.15 K, x1 = 0.6221 | 846.71
353.15 K, x1 = 0.6825 | 843.48
353.15 K, x1 = 0.7551 | 839.78
353.15 K, x1 = 0.8154 | 836.84
353.15 K, x1 = 0.8851 | 833.58
353.15 K, x1 = 0.9411 | 831.05
